Laboratory results: the supplement of paper PMC10307832

Key:
Test in all cases: relative viability (nuclei count vs DMSO), 5 days (fraction); higher = more cells survive
[1] = tested on: LOU-NH91
Method in brief: (§1)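 After 5 days of treatment, lung cancer cells in 1536-well plates were fixed and stained in a single step (final 0.05% Triton X-100, 1% formaldehyde, 1 ug/ml Hoechst) and their nuclei counted on 4× images. Treatment had been applied by pin tool the day after seeding as one drug alone or as a fixed anchor-drug dose with five library-drug doses (not always all listed) in √10 steps. Relative viability is the nuclei count of treated wells divided by that of vehicle wells, and values are medians of duplicate plates.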

[2] = tested on: 201T
Method in brief: as §1

[3] = tested on: NCI-H1993
Method in brief: as §1

[4] = tested on: NCI-H2085
Method in brief: as §1

[5] = tested on: NCI-H441
Method in brief: as §1

[6] = tested on: NCI-H3122
Method in brief: as §1

[7] = tested on: NCI-H1563
Method in brief: as §1

[8] = tested on: NCI-H1793
Method in brief: as §1

[9] = tested on: NCI-H2170
Method in brief: as §1

[10] = tested on: NCI-H520
Method in brief: as §1

[11] = tested on: RERF-LC-KJ
Method in brief: as §1

[12] = tested on: NCI-H2023
Method in brief: as §1

[13] = tested on: SW 900
Method in brief: as §1

[14] = tested on: ABC-1
Method in brief: as §1

[15] = tested on: NCI-H1650
Method in brief: as §1

[16] = tested on: COR-L23
Method in brief: as §1

[17] = tested on: EPLC-272H
Method in brief: as §1

[18] = tested on: NCI-H2405
Method in brief: as §1

[19] = tested on: NCI-H647
Method in brief: as §1

[20] = tested on: PC-14
Method in brief: as §1

[21] = tested on: NCI-H2347
Method in brief: as §1

[22] = tested on: EKVX
Method in brief: as §1

[23] = tested on: NCI-H1734
Method in brief: as §1

With `C[C@@H]1CN(CC(=O)Nc2ccc3c(c2)Cc2cccc(-c4cc(=O)cc(N5CCOCC5)o4)c2S3)C[C@H](C)O1` + COc1cc2c(Oc3ccc(NC(=O)C4(C(=O)Nc5ccc(F)cc5)CC4)cc3F)ccnc2cc1OCCCN1CCOCC1 [Foretinib] (partner 0.25 µM) as the molecule, how does the relative viability ([1]; first compound 0.04 µM) read?
Its relative viability is 1.

And the relative viability ([1]; first compound 0.1265 µM)?
The relative viability was 0.96.

And the relative viability ([1]; first compound 0.4 µM)?
The relative viability was 0.943.

What about the relative viability ([1]; first compound 4 µM) of the same molecule?
Its relative viability is 0.897.

What about the relative viability ([2]; first compound 0.04 µM) of the same molecule?
Its relative viability is 0.93.

What about the relative viability ([2]; first compound 0.1265 µM) of the same molecule?
Its relative viability is 1.06.

What about the relative viability ([2]; first compound 4 µM) of the same molecule?
Its relative viability is 0.936.

What about the relative viability ([3]; first compound 0.04 µM) of the same molecule?
The relative viability was 0.811.

What about the relative viability ([3]; first compound 0.1265 µM) of the same molecule?
Its relative viability is 0.711.

And the relative viability ([3]; first compound 0.4 µM)?
The relative viability was 0.646.

What about the relative viability ([3]; first compound 4 µM) of the same molecule?
The relative viability was 0.707.

And the relative viability ([4]; first compound 0.04 µM)?
Its relative viability is 1.15.

And the relative viability ([4]; first compound 0.1265 µM)?
Its relative viability is 0.83.

What about the relative viability ([4]; first compound 0.4 µM) of the same molecule?
Its relative viability is 1.03.

And the relative viability ([4]; first compound 4 µM)?
Its relative viability is 0.745.

What about the relative viability ([5]; first compound 0.04 µM) of the same molecule?
Its relative viability is 0.925.

What about the relative viability ([5]; first compound 0.1265 µM) of the same molecule?
The relative viability was 0.978.

What about the relative viability ([5]; first compound 0.4 µM) of the same molecule?
The relative viability was 0.911.

What about the relative viability ([5]; first compound 4 µM) of the same molecule?
The relative viability was 0.934.

What about the relative viability ([6]; first compound 0.04 µM) of the same molecule?
The relative viability was 1.03.

What about the relative viability ([6]; first compound 0.1265 µM) of the same molecule?
Its relative viability is 0.902.

And the relative viability ([6]; first compound 0.4 µM)?
Its relative viability is 0.961.

What about the relative viability ([6]; first compound 4 µM) of the same molecule?
Its relative viability is 0.914.

And the relative viability ([7]; first compound 0.04 µM)?
Its relative viability is 0.831.

And the relative viability ([7]; first compound 0.1265 µM)?
Its relative viability is 0.894.

What about the relative viability ([7]; first compound 0.4 µM) of the same molecule?
Its relative viability is 0.908.

And the relative viability ([7]; first compound 4 µM)?
The relative viability was 0.788.

And the relative viability ([8]; first compound 0.04 µM)?
The relative viability was 0.556.

What about the relative viability ([8]; first compound 0.1265 µM) of the same molecule?
The relative viability was 0.72.

And the relative viability ([8]; first compound 0.4 µM)?
The relative viability was 0.809.

What about the relative viability ([8]; first compound 4 µM) of the same molecule?
The relative viability was 0.476.

And the relative viability ([9]; first compound 0.04 µM)?
Its relative viability is 1.08.

And the relative viability ([9]; first compound 0.1265 µM)?
The relative viability was 0.97.

And the relative viability ([9]; first compound 0.4 µM)?
The relative viability was 0.648.

And the relative viability ([9]; first compound 4 µM)?
The relative viability was 1.

What about the relative viability ([10]; first compound 0.04 µM) of the same molecule?
Its relative viability is 0.86.

What about the relative viability ([10]; first compound 0.1265 µM) of the same molecule?
The relative viability was 0.88.

What about the relative viability ([10]; first compound 0.4 µM) of the same molecule?
The relative viability was 0.527.

What about the relative viability ([10]; first compound 4 µM) of the same molecule?
Its relative viability is 0.613.

What about the relative viability ([11]; first compound 0.04 µM) of the same molecule?
Its relative viability is 0.826.

What about the relative viability ([11]; first compound 0.1265 µM) of the same molecule?
The relative viability was 0.88.

And the relative viability ([11]; first compound 0.4 µM)?
Its relative viability is 0.827.

And the relative viability ([11]; first compound 4 µM)?
The relative viability was 0.871.

And the relative viability ([12]; first compound 0.04 µM)?
The relative viability was 0.732.

And the relative viability ([12]; first compound 0.1265 µM)?
The relative viability was 0.915.

What about the relative viability ([12]; first compound 0.4 µM) of the same molecule?
Its relative viability is 0.731.

What about the relative viability ([12]; first compound 4 µM) of the same molecule?
Its relative viability is 0.666.

What about the relative viability ([13]; first compound 0.04 µM) of the same molecule?
The relative viability was 0.809.

What about the relative viability ([13]; first compound 0.1265 µM) of the same molecule?
The relative viability was 0.836.

And the relative viability ([13]; first compound 0.4 µM)?
Its relative viability is 0.816.

And the relative viability ([13]; first compound 4 µM)?
Its relative viability is 0.782.

And the relative viability ([14]; first compound 0.1265 µM)?
The relative viability was 1.11.

What about the relative viability ([14]; first compound 0.4 µM) of the same molecule?
The relative viability was 1.06.

And the relative viability ([14]; first compound 4 µM)?
Its relative viability is 0.928.

What about the relative viability ([15]; first compound 0.04 µM) of the same molecule?
The relative viability was 1.07.

What about the relative viability ([15]; first compound 0.1265 µM) of the same molecule?
Its relative viability is 1.14.

And the relative viability ([15]; first compound 0.4 µM)?
Its relative viability is 1.04.

And the relative viability ([15]; first compound 4 µM)?
Its relative viability is 0.678.

And the relative viability ([16]; first compound 0.04 µM)?
Its relative viability is 0.991.

And the relative viability ([16]; first compound 0.1265 µM)?
The relative viability was 1.05.

And the relative viability ([16]; first compound 0.4 µM)?
The relative viability was 1.02.

And the relative viability ([16]; first compound 4 µM)?
The relative viability was 0.929.

What about the relative viability ([17]; first compound 0.04 µM) of the same molecule?
Its relative viability is 0.643.

And the relative viability ([17]; first compound 0.1265 µM)?
Its relative viability is 0.817.

What about the relative viability ([17]; first compound 0.4 µM) of the same molecule?
Its relative viability is 0.761.

What about the relative viability ([17]; first compound 4 µM) of the same molecule?
The relative viability was 0.674.

And the relative viability ([18]; first compound 0.04 µM)?
The relative viability was 1.02.

And the relative viability ([18]; first compound 0.1265 µM)?
Its relative viability is 1.08.

What about the relative viability ([18]; first compound 0.4 µM) of the same molecule?
Its relative viability is 1.03.

What about the relative viability ([18]; first compound 4 µM) of the same molecule?
The relative viability was 1.03.

What about the relative viability ([19]; first compound 0.04 µM) of the same molecule?
The relative viability was 1.34.

And the relative viability ([19]; first compound 0.1265 µM)?
Its relative viability is 1.17.

And the relative viability ([19]; first compound 0.4 µM)?
The relative viability was 1.2.

And the relative viability ([19]; first compound 4 µM)?
The relative viability was 0.793.

What about the relative viability ([20]; first compound 0.04 µM) of the same molecule?
The relative viability was 0.94.

And the relative viability ([20]; first compound 0.1265 µM)?
Its relative viability is 0.864.

What about the relative viability ([20]; first compound 0.4 µM) of the same molecule?
Its relative viability is 0.968.

And the relative viability ([20]; first compound 4 µM)?
Its relative viability is 0.902.

And the relative viability ([21]; first compound 0.04 µM)?
The relative viability was 0.758.

And the relative viability ([21]; first compound 0.1265 µM)?
The relative viability was 0.761.

And the relative viability ([21]; first compound 0.4 µM)?
The relative viability was 1.04.

And the relative viability ([21]; first compound 4 µM)?
The relative viability was 1.2.

What about the relative viability ([22]; first compound 0.04 µM) of the same molecule?
Its relative viability is 0.947.

What about the relative viability ([22]; first compound 0.1265 µM) of the same molecule?
The relative viability was 1.16.

And the relative viability ([22]; first compound 0.4 µM)?
Its relative viability is 0.927.

And the relative viability ([22]; first compound 4 µM)?
Its relative viability is 0.76.

And the relative viability ([23]; first compound 0.04 µM)?
The relative viability was 0.881.

And the relative viability ([23]; first compound 0.1265 µM)?
The relative viability was 0.851.

And the relative viability ([23]; first compound 0.4 µM)?
Its relative viability is 0.789.

And the relative viability ([23]; first compound 4 µM)?
Its relative viability is 0.976.
